Key:
[1] = molecular target: T1, CYP17 (Rattus norvegicus, UniProt P11715); test: Inhibition of CYP17 (rat testicular microsomes); format: biochemical; conditions: pooled rat testicular microsomes
T1 construct: from tissue; host or cells: rat testis (pooled microsomes)
T1 sequence (P11715 1-507): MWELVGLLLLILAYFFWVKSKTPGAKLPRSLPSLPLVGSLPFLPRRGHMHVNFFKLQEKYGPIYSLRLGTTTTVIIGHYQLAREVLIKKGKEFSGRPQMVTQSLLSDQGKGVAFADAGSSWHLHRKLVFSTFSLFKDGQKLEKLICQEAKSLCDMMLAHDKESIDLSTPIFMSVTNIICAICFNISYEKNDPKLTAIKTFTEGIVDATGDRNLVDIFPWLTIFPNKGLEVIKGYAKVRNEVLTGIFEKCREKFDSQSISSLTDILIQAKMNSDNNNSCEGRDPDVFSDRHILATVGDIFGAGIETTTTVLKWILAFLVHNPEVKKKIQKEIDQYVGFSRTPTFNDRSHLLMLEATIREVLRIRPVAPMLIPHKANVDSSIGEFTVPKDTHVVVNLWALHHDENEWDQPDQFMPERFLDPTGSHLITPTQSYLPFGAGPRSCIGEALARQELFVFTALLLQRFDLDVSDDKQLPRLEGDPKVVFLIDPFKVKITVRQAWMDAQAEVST
Protocol: CYP17 activity was assayed according to the following procedure. […] The individual test compound and isozyme inhibitor solutions were then diluted 20-fold with deionized water (50:950 v/v) to concentrations of 135, 27, 4.5, 0.9, 0.15, 0.03 and 0.005 μM. […] For active controls, blank test compound diluent was added in place of test compound solution.

[2] = molecular target: CYP2C9 (Homo sapiens, UniProt P11712); test: Inhibition of liver cytochrome P450 enzymes, CYP2C9 (human liver microsomes)
Protocol: (§1) A. Inhibition of Liver Cytochrome P450 Enzymes
(§2) Solutions of each test compound were separately prepared at concentrations of 20000, 6000, 2000, 600, 200, and 60 μM by serial dilution with DMSO:MeCN (50:50 v/v). The individual test compound solutions were then diluted 20-fold with DMSO:MeCN:deionized water (5:5:180 v/v/v) to concentrations of 1000, 300, 100, 30, 10, and 3 μM. […] The mixed inhibitor solutions were then diluted 20-fold with DMSO:MeCN:deionized water (5:5:180 v/v/v) to concentrations of 300, 100, 30, 10, 3, 1, 0.3, and 0.1 μM. The percent of organic solvent attributable to the test compound or inhibitor mixture in the final reaction mixture was 2% v/v.
(§3) Pooled human liver microsome suspension (20 mg/mL) was diluted with phosphate buffer to obtain a 5 mg/mL suspension. A solution of NADPH was prepared in phosphate buffer at a concentration of 5 mM. Separate stock solutions of each substrate were prepared in DMSO:MeCN (50:50 v/v), mixed, and diluted in phosphate buffer to obtain a single solution containing each substrate at five times its experimentally determined Km concentration. The percent of organic solvent attributable to substrate mixture in the final reaction mixture was 1% v/v.
(§4) Substrate solution and microsome suspension were combined in a 1:1 volume ratio, mixed, and distributed to reaction wells of a PCR plate. Individual test compound or combined inhibitor solutions at each concentration were added to the wells and mixed by repetitive aspirate-dispense cycles. […] Reaction mixtures were allowed to equilibrate at 37° C. for approximately two minutes before adding NADPH solution to initiate reaction, followed by pipette mixing of reaction mixture. Ten minutes after addition of NADPH, the reaction mixtures were quenched with cold acetonitrile. […] A portion of the supernatant was analyzed by gradient reverse-phase HPLC with detection by electrospray ionization triple quadrupole mass spectrometry in the positive ion mode.
(§5) Data was fitted to sigmoid dose-response curves and the inhibitory potency of each test compound was determined as its IC50 value.

[3] = molecular target: CYP3A4 (Homo sapiens, UniProt P08684); test: Inhibition of liver cytochrome P450 enzymes, CYP3A4 (human liver microsomes)
Protocol: as §1, §2, §3, §4, §5

[4] = molecular target: CYP2C19 (Homo sapiens, UniProt P33261); test: Inhibition of liver cytochrome P450 enzymes, CYP2C19 (human liver microsomes)
Protocol: as §1, §2, §3, §4, §5

CYP2C9, sequence (P11712 whole entry): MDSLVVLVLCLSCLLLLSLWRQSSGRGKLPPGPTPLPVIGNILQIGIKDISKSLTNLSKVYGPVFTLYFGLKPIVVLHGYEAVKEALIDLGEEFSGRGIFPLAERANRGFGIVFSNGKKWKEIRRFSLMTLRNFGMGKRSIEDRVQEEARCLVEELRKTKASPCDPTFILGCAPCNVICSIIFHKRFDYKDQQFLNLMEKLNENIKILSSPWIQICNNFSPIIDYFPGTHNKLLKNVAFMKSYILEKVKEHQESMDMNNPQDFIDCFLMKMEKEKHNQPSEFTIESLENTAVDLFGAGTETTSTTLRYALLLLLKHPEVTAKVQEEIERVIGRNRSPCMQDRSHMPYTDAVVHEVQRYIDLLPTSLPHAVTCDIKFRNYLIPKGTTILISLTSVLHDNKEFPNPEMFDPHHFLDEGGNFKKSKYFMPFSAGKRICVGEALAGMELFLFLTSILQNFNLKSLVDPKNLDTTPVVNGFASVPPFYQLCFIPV
CYP2C19, sequence (P33261 whole entry): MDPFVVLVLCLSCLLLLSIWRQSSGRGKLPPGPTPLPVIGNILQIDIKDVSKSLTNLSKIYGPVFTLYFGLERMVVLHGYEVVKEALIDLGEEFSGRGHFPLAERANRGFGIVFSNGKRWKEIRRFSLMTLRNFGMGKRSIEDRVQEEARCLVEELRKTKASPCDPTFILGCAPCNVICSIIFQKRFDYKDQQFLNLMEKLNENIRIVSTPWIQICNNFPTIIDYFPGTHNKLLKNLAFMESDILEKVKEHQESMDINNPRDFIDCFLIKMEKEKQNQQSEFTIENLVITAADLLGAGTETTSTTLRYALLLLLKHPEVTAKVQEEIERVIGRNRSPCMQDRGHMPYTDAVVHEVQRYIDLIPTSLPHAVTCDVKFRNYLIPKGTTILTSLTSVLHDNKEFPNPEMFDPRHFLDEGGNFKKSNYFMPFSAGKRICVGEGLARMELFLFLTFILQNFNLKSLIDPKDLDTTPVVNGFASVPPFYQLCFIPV
CYP3A4, sequence (P08684 whole entry): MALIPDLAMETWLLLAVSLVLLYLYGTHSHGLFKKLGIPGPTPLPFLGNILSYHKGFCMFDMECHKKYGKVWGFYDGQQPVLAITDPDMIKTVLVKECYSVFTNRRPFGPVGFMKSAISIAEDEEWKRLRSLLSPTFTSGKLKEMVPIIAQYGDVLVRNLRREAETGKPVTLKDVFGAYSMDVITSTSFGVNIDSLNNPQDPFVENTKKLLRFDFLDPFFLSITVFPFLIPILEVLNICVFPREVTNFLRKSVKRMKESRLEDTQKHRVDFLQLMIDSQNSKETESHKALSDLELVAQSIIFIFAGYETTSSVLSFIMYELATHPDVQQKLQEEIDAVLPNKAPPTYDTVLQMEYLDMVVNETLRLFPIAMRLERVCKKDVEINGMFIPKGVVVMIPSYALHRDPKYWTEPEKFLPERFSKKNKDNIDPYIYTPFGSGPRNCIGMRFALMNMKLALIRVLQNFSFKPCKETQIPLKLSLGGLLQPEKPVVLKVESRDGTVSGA

Row | Structure (SMILES) | IC50 [1] [µM] | IC50 [2] [µM] | IC50 [3] [µM] | IC50 [4] [µM]
1 | CC(C)C(O)(c1ccncn1)c1ccc2cc(OC(F)(F)F)ccc2n1 (centres unmarked) [Example 6, 2-methyl-1-(pyrimidin-4-yl)-1-(6-(trifluoromethoxy)quinolin-2-yl)propan-1-ol] | 0.98 | – | – | –
2 | COc1cc2ccc(C(O)(c3ccncn3)C(C)C)cc2cc1OC (centres unmarked) [Example 1, 1-(6,7-dimethoxynaphthalen-2-yl)-2-methyl-1-(pyrimidin-4-yl)propan-1-ol] | 0.44 | 7.8 | 18 | 8.5
3 | CC(C)C(O)(c1ccncn1)c1ccc2c(C(F)(F)F)c(-c3cccs3)ccc2n1 (centres unmarked) [Example 4, 2-methyl-1-(pyrimidin-4-yl)-1-(6-(thiophen-2-yl)-5-(trifluoromethyl)quinolin-2-yl)propan-1-ol] | 5.76 | – | – | –
4 | CC(C)C(O)(c1ccncn1)c1ccc2cc(OC(F)F)ccc2n1 (centres unmarked) [Example 3, 1-(6-(Difluoromethoxy)quinolin-2-yl)-2-methyl-1-(pyrimidin-4-yl)propan-1-ol] | 0.08 | 3.5 | 30 | 8.7
5 | CC(C)C(O)(c1ccncn1)c1ccc2c(-c3cccs3)c(OC(F)F)ccc2n1 (centres unmarked) [Example 8, 1-(6-(difluoromethoxy)-5-(thiophen-2-yl)quinolin-2-yl)-2-methyl-1-(pyrimidin-4-yl)propan-1-ol] | 1 | – | – | –

Now from value to molecule:

Row | IC50 [1] [µM] | IC50 [2] [µM] | IC50 [3] [µM] | IC50 [4] [µM] | Structure (SMILES)
6 | 0.6 | – | – | – | CC(C)C(O)(c1ccncn1)c1ccc2c(C(F)(F)F)c(OC(F)F)ccc2n1 (centres unmarked) [Example 7, 1-(6-(difluoromethoxy)-5-(trifluoromethyl)quinolin-2-yl)-2-methyl-1-(pyrimidin-4-yl)propan-1-ol]
7 | 1.75 | – | – | – | CC(C)C(O)(c1ccncn1)c1ccc2c(C(F)(F)F)c(Cl)ccc2n1 (centres unmarked) [Example 5, 1-(6-chloro-5-(trifluoromethyl)quinolin-2-yl)-2-methyl-1-(pyrimidin-4-yl)propan-1-ol]
8 | 0.12 | 3.3 | 19 | 5.1 | CSc1ccc2nc(C(O)(c3ccncn3)C(C)C)ccc2c1 (centres unmarked) [Example 2, 2-Methyl-1-(6-(methylthio)quinolin-2-yl)-1-(pyrimidin-4-yl)propan-1-ol]

Reference: patent US9056855B2, “Metalloenzyme inhibitor compounds” (Viamet Pharmaceuticals, Inc., priority 2010, dated 2015)
